Assay results taken from patent publication US5607937A, “Piperazides of substituted phenylalanine derivatives as thrombin inhibitors” (priority 1993, dated 1997).
Read-outs that look alike come from different tables or passages of the source. Blank lines part the entries; values can stand above or below the compound they belong to.

Columns and labels:
[1] = plasma concentration in rats after intravenous administration; type: in vivo; conditions: rat; for concentration at 0.25 h: 15 min; for concentration at 0.5 h: 30 min; for concentration at 1 h: 60 min; for elimination in words: i.v.
Protocol: (§3) A physiological NaCl solution of the substance to be tested was submitted to high pressure liquid chromatography (HPLC) in order to determine its characteristic substance-specific retention time with the chosen test conditions.
(§4) The substance to be tested was diluted in vitro in rat plasma. This solution was also submitted to HPLC to see whether the characteristic peak of the substance once again appeared at the substance-specific retention time.
(§5) Blood samples were taken at time intervals of 15 minutes, from which plasma samples were prepared by centrifugation; those samples were also submitted to HPLC to see whether the characteristic peak of the substance appeared again at the substance-specific retention time.
(§6) After administration, blood samples were taken from the test animals at time intervals from 2 to maximally 360 minutes and the blood level of the compounds to be tested was determined by HPLC.

[2] = molecular target: tPA (Homo sapiens, UniProt P00750); assay: inhibition of tPA, dissociation constant Ki
Sequence of tPA (P00750 36-562): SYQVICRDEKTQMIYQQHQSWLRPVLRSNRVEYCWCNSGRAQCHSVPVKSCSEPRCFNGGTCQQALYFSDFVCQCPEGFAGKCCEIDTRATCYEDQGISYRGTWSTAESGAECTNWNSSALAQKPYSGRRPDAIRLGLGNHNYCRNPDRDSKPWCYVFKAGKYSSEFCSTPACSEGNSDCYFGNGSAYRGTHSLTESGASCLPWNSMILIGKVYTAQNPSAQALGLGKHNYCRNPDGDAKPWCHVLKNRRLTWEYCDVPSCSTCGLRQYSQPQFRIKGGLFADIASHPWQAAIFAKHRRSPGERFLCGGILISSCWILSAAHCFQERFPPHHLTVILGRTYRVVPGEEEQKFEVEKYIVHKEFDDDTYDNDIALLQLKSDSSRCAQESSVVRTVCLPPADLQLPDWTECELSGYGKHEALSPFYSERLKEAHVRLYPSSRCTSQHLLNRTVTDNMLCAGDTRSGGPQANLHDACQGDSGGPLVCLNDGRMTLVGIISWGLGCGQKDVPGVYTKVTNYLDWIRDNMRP

[3] = plasma concentration in rats after rectal administration; type: in vivo; conditions: rat; for concentration at 0.5 h / concentration at 1 h / concentration at 2 h / concentration at 3 h / concentration at 4 h / concentration at 5 h / concentration at 6 h: plasma; for concentration at 0.5 h: 30 min; for concentration at 1 h: 60 min; for concentration at 2 h: 120 min; for concentration at 3 h: 180 min; for concentration at 4 h: 240 min; for concentration at 5 h: 300 min; for concentration at 6 h: 360 min
[4] = molecular target: plasmin (Homo sapiens, UniProt P00747); assay: inhibition of plasmin, dissociation constant Ki
Sequence of plasmin (P00747 581-810 limits assumed): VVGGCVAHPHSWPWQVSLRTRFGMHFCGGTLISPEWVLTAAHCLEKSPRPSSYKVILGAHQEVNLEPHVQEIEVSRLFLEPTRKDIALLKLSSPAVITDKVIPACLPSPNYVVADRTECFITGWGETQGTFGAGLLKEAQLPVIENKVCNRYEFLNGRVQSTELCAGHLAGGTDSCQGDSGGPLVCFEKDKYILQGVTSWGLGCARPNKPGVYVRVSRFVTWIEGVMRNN
Sequence of plasmin (P00747 97-580 partner limits assumed): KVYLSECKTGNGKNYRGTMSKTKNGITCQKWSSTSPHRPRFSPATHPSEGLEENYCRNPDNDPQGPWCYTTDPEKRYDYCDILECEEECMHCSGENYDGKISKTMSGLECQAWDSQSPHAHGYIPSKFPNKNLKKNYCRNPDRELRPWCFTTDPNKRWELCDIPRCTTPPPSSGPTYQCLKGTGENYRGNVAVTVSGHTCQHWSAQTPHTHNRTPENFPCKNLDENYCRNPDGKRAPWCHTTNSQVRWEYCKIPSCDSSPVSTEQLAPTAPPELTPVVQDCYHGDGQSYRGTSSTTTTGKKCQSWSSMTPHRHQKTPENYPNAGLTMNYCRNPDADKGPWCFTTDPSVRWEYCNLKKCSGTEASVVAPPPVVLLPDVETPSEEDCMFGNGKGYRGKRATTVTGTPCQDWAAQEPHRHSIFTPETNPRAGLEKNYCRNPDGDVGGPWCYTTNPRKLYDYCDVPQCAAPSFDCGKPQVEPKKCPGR

[5] = test system: coagulation in human plasma; assay: activated partial thromboplastin time (aPTT) in human plasma
[6] = molecular target: glandular kallikrein (Sus scrofa, UniProt P00752); assay: inhibition of glandular kallikrein, dissociation constant Ki
Sequence of glandular kallikrein (P00752 8-246): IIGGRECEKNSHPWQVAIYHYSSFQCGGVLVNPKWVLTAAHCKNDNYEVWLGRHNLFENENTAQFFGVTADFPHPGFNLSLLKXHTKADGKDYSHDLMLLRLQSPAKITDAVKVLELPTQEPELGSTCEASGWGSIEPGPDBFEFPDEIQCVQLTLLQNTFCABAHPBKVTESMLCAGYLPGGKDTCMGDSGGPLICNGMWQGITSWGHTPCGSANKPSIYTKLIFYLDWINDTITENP

[7] = molecular target: T1, factor XIIa (Homo sapiens, UniProt P00748); assay: inhibition of factor XIIa, dissociation constant Ki
T1 sequence (P00748 373-615 limits assumed): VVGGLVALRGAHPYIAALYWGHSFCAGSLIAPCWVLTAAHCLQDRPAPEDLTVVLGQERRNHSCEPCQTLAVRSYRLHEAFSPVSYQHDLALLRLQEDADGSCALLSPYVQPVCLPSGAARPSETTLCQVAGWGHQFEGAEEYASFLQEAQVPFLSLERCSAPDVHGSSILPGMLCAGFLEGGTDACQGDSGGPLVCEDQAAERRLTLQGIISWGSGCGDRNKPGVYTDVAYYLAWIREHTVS

[8] = test system: coagulation in human plasma; assay: thrombin time (TT) in human plasma
[9] = molecular target: factor Xa (Bos taurus, UniProt P00743); assay: inhibition of factor Xa, dissociation constant Ki; type: biochemical; conditions: Table 1
Sequence of factor Xa (P00743 234-492 limits assumed): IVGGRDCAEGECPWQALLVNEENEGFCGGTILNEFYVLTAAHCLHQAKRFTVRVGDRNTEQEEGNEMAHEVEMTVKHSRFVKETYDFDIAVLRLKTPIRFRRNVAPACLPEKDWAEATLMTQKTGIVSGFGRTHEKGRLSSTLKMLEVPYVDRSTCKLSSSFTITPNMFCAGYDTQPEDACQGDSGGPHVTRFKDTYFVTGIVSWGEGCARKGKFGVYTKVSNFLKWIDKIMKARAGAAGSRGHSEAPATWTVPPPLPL
Sequence of factor Xa (P00743 41-180 partner limits assumed): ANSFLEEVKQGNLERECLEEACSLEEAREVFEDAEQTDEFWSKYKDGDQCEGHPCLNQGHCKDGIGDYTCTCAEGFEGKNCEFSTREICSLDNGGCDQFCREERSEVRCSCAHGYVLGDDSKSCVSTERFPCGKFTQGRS
Protocol: (§1) The biological activity of the compounds of the present invention was determined in vitro as well as in vivo.

[10] = plasma concentration in rats after oral administration; type: in vivo; conditions: rat; for concentration at 0.5 h: 30 min; for concentration at 1 h: 60 min; for resorption in words: oral
Protocol: as §3, §4, §5, §6

[11] = test system: coagulation in human plasma; assay: prothrombin time (PT, Quick value) in human plasma
[12] = molecular target: plasma kallikrein (Homo sapiens, UniProt P03952); assay: inhibition of plasma kallikrein, dissociation constant Ki
Sequence of plasma kallikrein (P03952 391-638 limits assumed, species assumed): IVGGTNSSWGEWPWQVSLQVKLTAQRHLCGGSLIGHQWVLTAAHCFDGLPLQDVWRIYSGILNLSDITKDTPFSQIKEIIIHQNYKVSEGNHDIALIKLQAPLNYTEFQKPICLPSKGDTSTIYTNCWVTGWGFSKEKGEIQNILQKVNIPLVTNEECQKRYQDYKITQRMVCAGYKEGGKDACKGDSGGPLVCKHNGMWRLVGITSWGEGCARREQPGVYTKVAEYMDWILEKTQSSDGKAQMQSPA
Sequence of plasma kallikrein (P03952 20-390 partner limits assumed, species assumed): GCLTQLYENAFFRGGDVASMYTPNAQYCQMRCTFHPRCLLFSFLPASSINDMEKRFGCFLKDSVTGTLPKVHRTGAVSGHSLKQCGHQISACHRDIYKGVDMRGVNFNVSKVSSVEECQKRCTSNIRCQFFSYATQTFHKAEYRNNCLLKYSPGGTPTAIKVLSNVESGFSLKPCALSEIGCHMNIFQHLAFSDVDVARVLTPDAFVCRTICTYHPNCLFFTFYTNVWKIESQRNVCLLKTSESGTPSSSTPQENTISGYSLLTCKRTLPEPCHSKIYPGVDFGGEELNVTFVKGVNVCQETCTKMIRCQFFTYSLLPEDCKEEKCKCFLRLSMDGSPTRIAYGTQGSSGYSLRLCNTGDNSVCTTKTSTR

[13] = in vivo; conditions: rat, intraduodenal 100 mg/kg; for Concentration in plasma: hydrochloride, 100 mg/kg
[14] = concentration in rat plasma in the anticoagulant study after rectal application; type: in vivo; conditions: for concentration at 0.5 h / concentration at 1 h / concentration at 2 h / concentration at 3 h: plasma; for concentration at 0.5 h: 30 min; for concentration at 1 h: 60 min; for concentration at 2 h: 120 min; for concentration at 3 h: 180 min; for Concentration in plasma: 0 min
[15] = molecular target: T2, trypsin (Bos taurus, UniProt P00760); assay: inhibition of trypsin, dissociation constant Ki; type: biochemical; parameters: thrombin and the related enzymes trypsin, plasmin, factor Xa, factor XIIa; conditions: Table 1; read-out: Ki, Trypsin
T2 sequence (P00760 24-246): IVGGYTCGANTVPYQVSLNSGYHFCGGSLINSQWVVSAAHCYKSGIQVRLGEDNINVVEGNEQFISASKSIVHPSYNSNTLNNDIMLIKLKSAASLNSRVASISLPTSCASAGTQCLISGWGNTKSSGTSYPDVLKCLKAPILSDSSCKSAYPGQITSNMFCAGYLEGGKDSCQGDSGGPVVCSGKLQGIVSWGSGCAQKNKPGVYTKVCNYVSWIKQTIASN
Protocol: as §1

[16] = test system: coagulation in rat plasma; assay: thrombin time in rat plasma after rectal application; type: in vivo
Protocol: (§2) After rectal administration of the compounds to be tested, the anticoagulant effect was determined in the plasma of experimental animals.

[17] = test system: coagulation in rat plasma; assay: aPTT in rat plasma after rectal application; type: in vivo
Protocol: as §2

[18] = molecular target: thrombin (Bos taurus, UniProt P00735); assay: biochemical

Compound: CC(=O)N1CCN(C(=O)C(Cc2cccc(C(=N)N)c2)NS(=O)(=O)c2ccc3ccccc3c2)CC1 (centres unmarked) [Compound 1]
concentration at 5 min ([1]; plasma, iv, i.v. 1 mg/kg): 1060 ng/mL
concentration at 0.25 h ([1]; plasma, iv, i.v. 1 mg/kg): 394 ng/mL
concentration at 0.5 h ([1]; plasma, iv, i.v. 1 mg/kg): 150 ng/mL
concentration at 1 h ([1]; plasma, iv, i.v. 1 mg/kg): 89 ng/mL
concentration at 2 h ([1]; plasma, iv, i.v. 1 mg/kg, 120 min): 74 ng/mL
concentration at 3 h ([1]; plasma, iv, i.v. 1 mg/kg, 180 min): 51 ng/mL
elimination in words [1]: eliminated at comparable rate
Ki [2]: > 1000 µM
concentration at 0.5 h ([3]; rectal 100 mg/kg): 31400 ng/mL
concentration at 1 h ([3]; rectal 100 mg/kg): 17900 ng/mL
concentration at 2 h ([3]; rectal 100 mg/kg): 3780 ng/mL
concentration at 3 h ([3]; rectal 100 mg/kg): 1080 ng/mL
concentration at 4 h ([3]; rectal 100 mg/kg): 438 ng/mL
concentration at 5 h ([3]; rectal 100 mg/kg): 220 ng/mL
concentration at 6 h ([3]; rectal 100 mg/kg): 158 ng/mL
detectable in plasma after rectal administration ([3]; rectal): ≥ 6 h
Ki ([4]; read-out: Ki, Plasmin, Table 1): 8.4 µM
Concentr. to double the aPTT [5]: 0.90 µmol/L
concentration to double the aPTT [5]: ≤ 1 μmol/1
Ki [6]: > 1000 µM
Ki [7]: 210 µM
Concentr. to double the Thrombin time [8]: 0.095 µmol/L
concentration to double the TT [8]: less than 10^-7 mol/1
Ki [9]: 48 µM
concentration at 0.5 h ([10]; plasma, oral 50 mg/kg): 87 ng/mL
concentration at 1 h ([10]; plasma, oral 50 mg/kg): 63 ng/mL
concentration at 2 h ([10]; plasma, oral 50 mg/kg, 120 min): 57 ng/mL
concentration at 3 h ([10]; plasma, oral 50 mg/kg, 180 min): 69 ng/mL
concentration at 4 h ([10]; plasma, oral 50 mg/kg, 240 min): 91 ng/mL
concentration at 5 h ([10]; plasma, oral 50 mg/kg, 300 min): 61 ng/mL
resorption in words [10]: only slightly resorbed
Concentr. to double the Prothrombin time [11]: 2.5 µmol/L
concentration to double the PT [11]: ≤ 1 μmol/1
Ki [12]: 28 µM

Compound: CS(=O)(=O)N1CCN(C(=O)[C@H](Cc2cccc(C(=N)N)c2)NS(=O)(=O)c2ccc3ccccc3c2)CC1.Cl [Compound 5, Nα-(2-naphthylsulfonyl)-3-amidino-(L)-phenylalanine-4methylsulfonylpiperazide hydrochloride]
concentration at 3 h ([13]; plasma, 180 min): 297 ng/mL
concentration at 4 h ([13]; plasma, 240 min): 530 ng/mL
concentration at 5 h ([13]; plasma, 300 min): 137 ng/mL
concentration at 6 h ([13]; plasma, 360 min): 119 ng/mL
Concentration in plasma ([13]; 30 min): 8744 ng/mL
Concentration in plasma ([13]; 30 min, listed as 5*): 1576 ng/mL
Concentration in plasma ([13]; 60 min): 9314 ng/mL
Concentration in plasma ([13]; 60 min, listed as 5*): 1900 ng/mL
Concentration in plasma ([13]; 120 min): 8612 ng/mL
Concentration in plasma ([13]; 120 min, listed as 5*): 1763 ng/mL
concentration at 5 min ([1]; plasma, iv, i.v. 1 mg/kg): 879 ng/mL
concentration at 0.25 h ([1]; plasma, iv, i.v. 1 mg/kg): 367 ng/mL
concentration at 0.5 h ([1]; plasma, iv, i.v. 1 mg/kg): 151 ng/mL
concentration at 1 h ([1]; plasma, iv, i.v. 1 mg/kg): 50 ng/mL
elimination in words [1]: eliminated at comparable rate
Concentration in plasma ([1]; i.v. 1 mg/kg, 120 min): 0 ng/mL
Concentration in plasma ([1]; i.v. 1 mg/kg, 180 min): 0 ng/mL
Ki [2]: 190 µM
concentration at 0.5 h ([14]; rectal 5 mg/kg): 168 ng/mL
concentration at 1 h ([14]; rectal 5 mg/kg): 65 ng/mL
concentration at 2 h ([14]; rectal 5 mg/kg): 82 ng/mL
concentration at 3 h ([14]; rectal 5 mg/kg): 10 ng/mL
concentration at 0.5 h ([14]; rectal 20 mg/kg): 1570 ng/mL
concentration at 1 h ([14]; rectal 20 mg/kg): 983 ng/mL
concentration at 2 h ([14]; rectal 20 mg/kg): 380 ng/mL
concentration at 3 h ([14]; rectal 20 mg/kg): 195 ng/mL
Concentration in plasma ([14]; rectal 5 mg/kg): 0 ng/mL
Concentration in plasma ([14]; rectal 20 mg/kg): 0 ng/mL
concentration at 0.5 h ([3]; rectal 20 mg/kg): 1650 ng/mL
concentration at 1 h ([3]; rectal 20 mg/kg): 958 ng/mL
concentration at 2 h ([3]; rectal 20 mg/kg): 299 ng/mL
concentration at 3 h ([3]; rectal 20 mg/kg): 192 ng/mL
Ki [4]: 9 µM
Concentr. to double the aPTT [5]: 0.26 µmol/L
concentration to double the aPTT [5]: ≤ 1 μmol/1
Ki [6]: > 1000 µM
Ki [15]: 0.067 µM
Ki [7]: 52 µM
Concentr. to double the Thrombin time [8]: 0.034 µmol/L
concentration to double the TT [8]: less than 10^-7 mol/1
Clotting time, Thrombin time ([16]; rectal 5 mg/kg, 0 min): 51.5 s
Clotting time, Thrombin time ([16]; rectal 5 mg/kg, 30 min): > 300 s
Clotting time, Thrombin time ([16]; rectal 5 mg/kg, 60 min): 255 s
Clotting time, Thrombin time ([16]; rectal 5 mg/kg, 120 min): 137.5 s
Clotting time, Thrombin time ([16]; rectal 5 mg/kg, 180 min): 95 s
Clotting time, Thrombin time ([16]; rectal 20 mg/kg, 0 min): 153 s
Clotting time, Thrombin time ([16]; rectal 20 mg/kg, 30 min): > 300 s
Clotting time, Thrombin time ([16]; rectal 20 mg/kg, 60 min): > 300 s
Clotting time, Thrombin time ([16]; rectal 20 mg/kg, 120 min): > 300 s
Clotting time, Thrombin time ([16]; rectal 20 mg/kg, 180 min): > 300 s
Clotting time, aPTT ([17]; rectal 5 mg/kg, 0 min): 21.2 s
Clotting time, aPTT ([17]; rectal 5 mg/kg, 30 min): 34.5 s
Clotting time, aPTT ([17]; rectal 5 mg/kg, 60 min): 30.5 s
Clotting time, aPTT ([17]; rectal 5 mg/kg, 120 min): 27.5 s
Clotting time, aPTT ([17]; rectal 5 mg/kg, 180 min): 25.3 s
Clotting time, aPTT ([17]; rectal 20 mg/kg, 0 min): 22 s
Clotting time, aPTT ([17]; rectal 20 mg/kg, 30 min): 65 s
Clotting time, aPTT ([17]; rectal 20 mg/kg, 60 min): 62.5 s
Clotting time, aPTT ([17]; rectal 20 mg/kg, 120 min): 36 s
Clotting time, aPTT ([17]; rectal 20 mg/kg, 180 min): 29.7 s
resorption in words [10]: only slightly resorbed
Concentr. to double the Prothrombin time [11]: 0.39 µmol/L
concentration to double the PT [11]: ≤ 1 μmol/1
Ki [12]: 9.2 µM

Ki [18]: 0.67 µM
concentration at 5 min ([1]; plasma, iv, i.v. 1 mg/kg): 812 ng/mL
concentration at 0.25 h ([1]; plasma, iv, i.v. 1 mg/kg): 169 ng/mL
concentration at 0.5 h ([1]; plasma, iv, i.v. 1 mg/kg): 40 ng/mL
concentration at 1 h ([1]; plasma, iv, i.v. 1 mg/kg): 8 ng/mL
Concentration in plasma ([1]; i.v. 1 mg/kg, 120 min): 0 ng/mL
Concentration in plasma ([1]; i.v. 1 mg/kg, 180 min): 0 ng/mL
Ki [2]: 370 µM
concentration at 0.5 h ([3]; rectal 100 mg/kg): 3260 ng/mL
concentration at 1 h ([3]; rectal 100 mg/kg): 2370 ng/mL
concentration at 2 h ([3]; rectal 100 mg/kg): 1800 ng/mL
concentration at 3 h ([3]; rectal 100 mg/kg): 898 ng/mL
concentration at 4 h ([3]; rectal 100 mg/kg): 626 ng/mL
concentration at 5 h ([3]; rectal 100 mg/kg): 592 ng/mL
concentration at 6 h ([3]; rectal 100 mg/kg): 448 ng/mL
Ki [6]: > 1000 µM
Ki [7]: 210 µM
concentration at 0.5 h ([10]; plasma, oral 50 mg/kg): 33 ng/mL
concentration at 1 h ([10]; plasma, oral 50 mg/kg): 10 ng/mL
Concentration in plasma ([10]; oral 50 mg/kg, 120 min): 0 ng/mL
Concentration in plasma ([10]; oral 50 mg/kg, 180 min): 0 ng/mL
Concentration in plasma ([10]; oral 50 mg/kg, 240 min): 0 ng/mL
Concentration in plasma ([10]; oral 50 mg/kg, 300 min): 0 ng/mL
Ki [12]: 30 µM
Compound: CCOC(=O)N1CCN(C(=O)C(Cc2cccc(C(=N)N)c2)NS(=O)(=O)c2ccc3ccccc3c2)CC1 (racemic) [X, N-α-(2-naphthylsulfonyl)-(D,L)-3-amidinophenylalanine-4-ethoxycarbonyl piperazide, reference compound]
Concentr. to double the aPTT [5]: 20 µmol/L
Concentr. to double the Thrombin time [8]: 4.1 µmol/L
Concentr. to double the Prothrombin time [11]: 45 µmol/L
